What was measured:
pre-formed biofilm = details: Halstead et al, PLOS ONE (2015); cited from earlier work
S. aureus biofilms = details: 1% acetic acid alone, FIG. 2
[1] = cited from earlier work
human rhinovirus (HRV) = details: low concentration hypochlorous acid nasal irrigation solution, in vitro, nasal epithelial cells; cited from earlier work
avian influenza virus = details: similar formulations, in vitro; cited from earlier work

## CC(=O)O [acetic acid]
pre-formed biofilm
  concentrations of acetic acid that eradicated a pre-formed biofilm: 0.10% to 2.5
S. aureus biofilms
  effect on the biofilm: only minor effect

## OCl [hypochlorous acid]
[1]
  pKa: about 7
Human rhinovirus (HRV)
  virus-killing effect: significant virus-killing effect
Avian influenza virus
  effects against avian influenza virus: good effects

Reference: patent publication US20210352905A1, “COMPOSITIONS AND METHODS TO DISINFECT, TREAT AND PREVENT MICROBIAL INFECTIONS” (WIAB WATER INNOVATION AB, priority 2020, published 2021)
